Measurements as given in patent US12187705B2, “Heteroaryl-triazole and heteroaryl-tetrazole compounds as pesticides” (Bayer Aktiengesellschaft, priority 2018, dated 2025).

Legend:
Format in all cases: in vivo
Ctenocephalides felis [1] = assay: Ctenocephalides felis in-vitro contact test adult cat flea; conditions: 5 μg/cm^2 (=500 g/ha), after 48 hours
Method: Ctenocephalides felis—In-Vitro Contact Test Adult Cat Flea
9 mg compound is solved in 1 ml acetone and diluted with acetone to the desired concentration. 250 μl of the test solution is filled in 25 ml glass test tubes and homogeneously distributed on the inner walls by rotation and tilting on a shaking device (2 h at 30 rpm). With a compound concentration of 900 ppm, an inner surface of 44.7 cm^2 and a homogeneous distribution, a dose of 5 μg/cm^2 is achieved.
After the solvent has evaporated, each test tube is filled with 5-10 adult cat fleas (Ctenocephalides felis), closed with a perforated lid and incubated in a lying position at room temperature and relative humidity. After 48 hours efficacy is determined. The fleas are patted on the ground of the tubes and are incubated on a heating plate at 45-50° C. for at most 5 minutes. Immotile or uncoordinated moving fleas, which are not able to escape the heat by climbing upwards, are marked as dead or moribund.
An efficacy of 100% means all fleas are dead or moribund; 0% means no fleas are dead or moribund.

Boophilus microplus = Boophilus microplus injection test; conditions: 20 μg/animal, egg deposition after 7 days; for pest or weed control at 0.02 mg: Rhipicephalus microplus, 168 h, read-out: efficacy (infertile eggs)
Method: Boophilus microplus—Injection Test
(§1) Solvent: dimethyl sulfoxide
To produce a suitable preparation of active compound, 10 mg of active compound are dissolved in 0.5 ml solvent, and the concentrate is diluted with solvent to the desired concentration.
Five adult engorged female ticks (Boophilus microplus) are injected with 1 μl compound solution into the abdomen. The ticks are transferred into replica plates and incubated in a climate chamber.
After 7 days egg deposition of fertile eggs is monitored. Eggs where fertility is not visible are stored in a climate chamber till hatching after about 42 days. An efficacy of 100% means all eggs are infertile; 0% means all eggs are fertile.

Diabrotica balteata = Diabrotica balteata spray test; conditions: 160 μg/well, wheat seeds, after 7 days; for pest or weed control at 160 µg/disc, 160 µg/well: Diabrotica balteata, 168 h, read-out: efficacy (seedlings grown)
Method: Diabrotica balteata—Spray Test
(§2) To produce a suitable preparation of active compound, 1 part by weight of active compound is mixed with the stated amount of solvent, and the concentrate is diluted with water, containing an emulsifier concentration of 1000 ppm, to the desired concentration. Further test concentrations are prepared by dilution with emulsifier containing water.
Soaked wheat seeds (Triticum aestivum) are placed in a multiple well plate filled with agar and some water and are incubated for 1 day to germinate (5 seeds per well). The germinated wheat seeds are sprayed with a test solution containing the desired concentration of the active ingredient. Afterwards each unit is infected with 10-20 larvae of the banded cucumber beetle (Diabrotica balteata).
After 7 days efficacy in % is determined. 100% means all the seedlings have grown up like in the untreated, uninfected control; 0% means none of the seedlings have grown.

Nezara viridula = Nezara viridula spray test; conditions: in Hordeum vulgare, 96 h
Method: Nezara viridula—Spray Test
as §2
Barley plants (Hordeum vulgare) infested with larvae of the southern green stink bug (Nezara viridula) are sprayed with a test solution containing the desired concentration of the active ingredient.
After 4 days mortality in % is determined. 100% means all the stink bugs have been killed; 0% means none of the stink bugs have been killed.

[2] = test system: Culex quinquefasciatus strain P00; assay: Culex quinquefasciatus test (CULXFA surface treatment & contact assay); conditions: surface concentration 20 mg/m^2, 30 minutes exposure, 24 hours after contact, read-out: efficacy (mortality)
Method: Culex quinquefasciatus Test (CULXFA Surface Treatment & Contact Assay)
(§3) Solvent: Aceton+2000 ppm rapeseed oil methyl ester (RME)
In order to produce a sufficient, active ingredient containing solution it is necessary to solve the test-compound in the solvent-mix (Acetone at 2 mg/ml/RME 2000 ppm). This solution is pipetted onto a glazed tile and after evaporation of the Acetone, adult mosquitoes of the species Culex quinquefasciatus strain P00 are placed onto the dried surface. The exposure time is 30 minutes.
(§4) Mortality in percent (%) is determined 24 hours after contact to the treated surface. 100% mortality means that all test-insects are dead, whereas 0% means that not a single insect died.

Ctenocephalides felis [3] = assay: Ctenocephalides felis oral test; conditions: Ctenocephalides felis, in Bos taurus, po, 48 h
Method: Ctenocephalides felis—Oral Test
as §1
To produce a suitable preparation of active compound, 10 mg of active compound are dissolved in 0.5 ml solvent, and the concentrate is diluted with cattle blood to the desired concentration.
Approximately 20 adult unfed cat fleas (Ctenocephalides felis) are placed in flea chambers. The blood chamber, sealed with parafilm on the bottom, are filled with cattle blood supplied with compound solution and placed on the gauze covered top of the flea chamber, so that the fleas are able to suck the blood. The blood chamber is heated to 37° C. whereas the flea chamber is kept at room temperature.
After 2 days mortality in % is determined. 100% means all the fleas have been killed; 0% means none of the fleas have been killed.

Myzus persicae = Myzus persicae oral test; conditions: 120 h
Method: To produce a suitable preparation of active compound, 1 part by weight of active compound is mixed with the stated amount of solvent, and the concentrate is diluted with water to the desired concentration.
50 μl compound solution is filled in microtiter plates and 150 μl IPL41 insect medium (33%+15% sugar) is added to obtain a total volume of 200 μl per well. Afterwards the plates are sealed with parafilm through which a mixed population of the green peach aphid (Myzus persicae) can suck on the compound preparation.
After 5 days mortality in % is determined. 100% means all aphids have been killed and 0% means none of the aphids have been killed.

[4] = test system: Aedes aegypti strain MONHEIM; assay: Aedes aegypti test (AEDSAE surface treatment & contact assay); conditions: surface concentration 20 mg/m^2, 30 minutes exposure, 24 hours after contact, read-out: efficacy (mortality)
Method: Aedes aegypti Test (AEDSAE Surface Treatment & Contact Assay)
as §3
In order to produce a sufficient, active ingredient containing solution it is necessary to solve the test-compound in the solvent-mix (Acetone at 2 mg/ml/RME 2000 ppm). This solution is pipetted onto a glazed tile and after evaporation of the Acetone, adult mosquitoes of the species Aedes aegypti strain MONHEIM are placed onto the dried surface. The exposure time is 30 minutes.
as §4

CC(NC(=O)c1cc(Cl)cc(S(=O)(=O)C(F)(F)F)c1)c1ncnn1-c1cc(C#N)ccn1 (stereo not shown) [Example I-075]
efficacy (fleas dead or moribund) (Ctenocephalides felis [1]): 90%
efficacy (infertile eggs) (Boophilus microplus): 100%
efficacy (seedlings grown) (Diabrotica balteata): 100%

CC(NC(=O)c1cc(Cl)cc(S(=O)(=O)C(F)(F)F)c1)c1ncnn1-c1ccc(Cl)cn1 (stereo not shown) [Example I-073]
efficacy (fleas dead or moribund) (Ctenocephalides felis [1]): 90%
efficacy (infertile eggs) (Boophilus microplus): 100%
efficacy (seedlings grown) (Diabrotica balteata): 100%

CC(NC(=O)c1cc(Cl)cc(S(=O)(=O)C(C)(C)C)c1)c1ncnn1-c1ncccn1 (stereo not shown) [Example I-080]
efficacy (infertile eggs) (Boophilus microplus): 80%

CC(NC(=O)c1csc(Cl)c1)c1ncnn1-c1ncc(C(F)(F)F)cn1 (stereo not shown) [Example I-098]
efficacy (fleas dead or moribund) (Ctenocephalides felis [1]): 90%
efficacy (seedlings grown) (Diabrotica balteata): 100%

C[C@@H](NC(=O)c1cc(C2CC2)on1)c1ncnn1-c1ncccn1 [Example I-107]
pest or weed control at 160 µg/disc, 160 µg/well (Diabrotica balteata): 100%
mortality at 500 g/ha (Nezara viridula): 100%
mortality at 20 mg/m2 [2]: 80 to 100%

C[C@@H](NC(=O)c1cc(Cl)cc(SC(C)(C)C)c1)c1ncnn1-c1ncccn1 [Example I-060]
mortality at 100 ppm (Ctenocephalides felis [3]): 100%
pest or weed control at 160 µg/disc, 160 µg/well (Diabrotica balteata): 100%
mortality at 500 g/ha (Nezara viridula): 100%

C[C@@H](NC(=O)c1cc(Cl)cc(S(=O)(=O)C(F)(F)F)c1)c1ncnn1-c1ccnc(Cl)c1 [Example I-076]
pest or weed control at 0.02 mg (Boophilus microplus): 100%
mortality at 100 ppm (Ctenocephalides felis [3]): 100%

C[C@H](NC(=O)c1cc(Cl)cc(NS(=O)(=O)c2ccccc2)c1)c1ncnn1-c1ncccn1 [Example I-086, 3-chloro-5-[(phenylsulfonyl)amino]-N-{(1S)-1-[1-(pyrimidin-2-yl)-1H-1,2,4-triazol-5-yl]ethyl}benzamide]
mortality at 4 ppm (Myzus persicae): 90%

CC(c1ncnn1-c1ncccn1)N(CC1CC1)C(=O)c1cc(Cl)ccc1Cl (stereo not shown) [Example I-014]
pest or weed control at 160 µg/disc, 160 µg/well (Diabrotica balteata): 100%

CC(NC(=O)c1cccc(-c2ccc(OC(F)(F)F)cc2)c1)c1ncnn1-c1ncccn1 (stereo not shown) [Example I-115]
pest or weed control at 160 µg/disc, 160 µg/well (Diabrotica balteata): 100%

CC(c1ncnn1-c1ncccn1)N(CC1CC1)C(=O)c1cc(Cl)cc(C(=O)NC2CC2)c1 (stereo not shown) [Example I-007]
pest or weed control at 5 µg/cm2, 5 µg/cm2 (Ctenocephalides felis [1]; Ctenocephalides felis, read-out: efficacy (fleas dead or moribund)): 100%
mortality at 100 ppm (Ctenocephalides felis [3]): 100%
pest or weed control at 160 µg/disc, 160 µg/well (Diabrotica balteata): 100%
mortality at 4 ppm (Myzus persicae): 100%
mortality at 20 ppm (Myzus persicae): 100%
mortality at 500 g/ha (Nezara viridula): 100%

CC(NC(=O)c1cc(Cl)cc(S(=O)(=O)C(F)(F)F)c1)c1ncnn1-c1ncc(Cl)cn1 (stereo not shown) [Example I-069]
efficacy (fleas dead or moribund) (Ctenocephalides felis [1]): 100%
efficacy (infertile eggs) (Boophilus microplus): 100%
efficacy (seedlings grown) (Diabrotica balteata): 100%

C[C@H](NC(=O)c1cc(Cl)cc(S(C)(=O)=O)c1)c1ncnn1-c1cnc(C#N)cn1 [Example I-117]
efficacy (seedlings grown) (Diabrotica balteata): 100%

CC(NC(=O)c1cc(Cl)cc(S(=O)(=O)C(F)(F)F)c1)c1ncnn1-c1ccc(C(F)(F)F)cn1 (stereo not shown) [Example I-072]
efficacy (infertile eggs) (Boophilus microplus): 100%
efficacy (seedlings grown) (Diabrotica balteata): 100%

CC(NC(=O)c1cc(Cl)cc(C2CC2)c1)c1ncnn1-c1ccc(C#N)cn1 (stereo not shown) [Example I-054]
efficacy (fleas dead or moribund) (Ctenocephalides felis [1]): 80%
efficacy (seedlings grown) (Diabrotica balteata): 100%

CC(NC(=O)c1cc(Cl)cc(-n2cccn2)c1)c1ncnn1-c1ncccn1 (stereo not shown) [Example I-048]
pest or weed control at 0.02 mg (Boophilus microplus): 100%
mortality at 100 ppm (Ctenocephalides felis [3]): 100%
pest or weed control at 160 µg/disc, 160 µg/well (Diabrotica balteata): 100%
mortality at 4 ppm (Myzus persicae): 100%
mortality at 20 mg/m2 [4]: 90 to 100%

CC(NC(=O)c1cc(Cl)cc(S(=O)(=O)C(F)(F)F)c1)c1ncnn1-c1ncc(C(F)(F)F)cn1 (stereo not shown) [Example I-097]
efficacy (seedlings grown) (Diabrotica balteata): 100%

C[C@@H](c1ncnn1-c1ccc(C#N)cn1)N(CC1CC1)C(=O)c1cc(F)cc(C2CC2)c1 [Example I-121]
efficacy (seedlings grown) (Diabrotica balteata): 100%

C[C@@H](NC(=O)c1cc(Cl)cc(NC(=O)C2CC2)c1)c1ncnn1-c1ncccn1 [Example I-088]
mortality at 100 ppm (Ctenocephalides felis [3]): 100%

C[C@H](NC(=O)c1cc(C(F)(F)F)nn1-c1ccc(F)cc1)c1ncnn1-c1ncccn1 [Example I-052, 1-(4-fluorophenyl)-N-{(1S)-1-[1-(pyrimidin-2-yl)-1H-1,2,4-triazol-5-yl]ethyl}-3-(trifluoromethyl)-1H-pyrazole-5-carboxamide]
pest or weed control at 0.02 mg (Boophilus microplus): 100%
mortality at 100 ppm (Ctenocephalides felis [3]): 100%

CC(NC(=O)c1cc(C(F)(F)F)cc(Cl)c1F)c1ncnn1-c1ncccn1 (stereo not shown) [Example I-104]
efficacy (seedlings grown) (Diabrotica balteata): 100%

CC(NC(=O)c1cc(Cl)cc(S(=O)(=O)C(F)(F)F)c1)c1ncnn1-c1ncc(Cl)cc1F (stereo not shown) [Example I-079]
efficacy (seedlings grown) (Diabrotica balteata): 100%

CC(c1ncnn1-c1ncccn1)N(CC1CC1)C(=O)Cc1cc(Cl)cc(C(F)(F)F)c1 (stereo not shown) [Example I-011]
pest or weed control at 160 µg/disc, 160 µg/well (Diabrotica balteata): 100%

COC[C@H](NC(=O)c1cc(Cl)cc(S(C)(=O)=O)c1)c1ncnn1-c1ccc(C#N)cn1 [Example I-058, 3-chloro-N-{(1R)-1-[1-(5-cyanopyridin-2-yl)-1H-1,2,4-triazol-5-yl]-2-methoxyethyl}-5-(methylsulfonyl)benzamide]
mortality at 100 ppm (Ctenocephalides felis [3]): 100%

C[C@H](NC(=O)c1cc(Br)cc(C(C)(C)C)c1)c1ncnn1-c1ncccn1 [Example I-125]
efficacy (seedlings grown) (Diabrotica balteata): 100%

C[C@H](NC(=O)c1cc(Cl)cc(S(=O)(=O)C(F)(F)F)c1)c1ncnn1-c1ccc(F)cn1 [Example I-118]
efficacy (seedlings grown) (Diabrotica balteata): 100%

Cc1cnc(-n2ncnc2[C@@H](C)NC(=O)c2csc(Cl)c2)nc1 [Example I-109]
mortality at 500 g/ha (Nezara viridula): 90%

CC(NC(=O)c1cc(Cl)cc(S(C)(=O)=O)c1)c1nc(C(F)(F)F)nn1-c1ccc(Cl)cn1 (stereo not shown) [Example I-090]
efficacy (seedlings grown) (Diabrotica balteata): 100%
